Tests used:
[1] = tested on: HCV subgenomic replicon in MH-14 cells; test: Immunoblot analysis of HCV NS5A and NS5B proteins in MH-14 HCV replicon cells; format: cell-based, Hepatitis C virus (HCV); conditions: 7 days
Method: (§1) Cell culture: Huh-7 and MH-14 cells, HCV replicon cells, are cultured in Dulbecco's modified Eagle's medium (DMEM) with 10% fetal bovine serum (FBS). PH5CH8 cells are cultured in a 1:1 mixture of DMEM and F12 medium supplemented with 100 ng/ml of epidermal growth factor, 10 μu/ml of insulin, 0.36 μg/ml of hydrocortisone, 5 μg/ml of transferrin, 5 μg/ml of linoleic acid, 20 ng/ml of selenium, 4 μg/ml of glucagon, 10 ng/ml of prolactin, 10 μg/ml of gentamicin, 200 μg/ml of kanamycin, and 2% FBS.
Immunoblot analysis: Immunoblot analysis is performed as described by K. Watashi et al., Virology 2001, 286, 391-402. The primary antibodies used in this experiment are anti-NS5A, anti-NS5B, and anti-β-actin (Sigma) antibodies.
The effect of various cyclosporins of the invention on the replication of the HCV genome using MH-14 cells, in which the HCV subgenomic replicon as shown in FIG. 1A is autonomously replicated.

[2] = tested on: HCV subgenomic replicon in MH-14 cells; test: Northern blot analysis of replicon RNA in MH-14 cells; format: cell-based, Hepatitis C virus (HCV); conditions: 1 μg/ml, 7 days
Method: as §1
Northern Blot Analysis: Nothern blot analysis is performed as described by H. Kishine et al., Biochem. Biophys. Res. Commun., 2002, 47, 119-125. The probe complementary to the NS5B sequence used in this experiment is described by H. Kishine, supra.
(§2) Replicon RNA is analyzed in MH-14 cells treated with or without a cyclosporin of the invention or IFNα for 7 days by northern blot analysis.

[3] = tested on: HCV subgenomic replicon in MH-14 cells; conditions: 7th day of treatment
Method: as §1
(§3) The forward and reverse primers used in this experiment are 5′-[…]-3′ and 5′-[…]-3′, respectively. The fluorogenic probe is 5′-[…]-3′. As an internal control, ribosomal RNA is also quantified using TaqMan Ribosomal RNA Control Reagents (Applied Biosystems).
as §2

[4] = tested on: HCV in PH5CH8 cells (non-neoplastic hepatocyte cell line); test: In vitro HCV infection experiment in PH5CH8 cells, real time RT-PCR; format: cell-based, Hepatitis C virus (HCV); conditions: PH5CH8 cells treated with HCV-positive plasma, continuous treatment; untreated cells about 10-fold increase
Method: as §1, §3

Row | Substance | amount of HCV NS5A and NS5B proteins by immunoblot analysis ([1]; 1 μg/ml) | amount of replicon RNA by northern blot [2] | level of HCV RNA relative to the original [3] | increase of HCV RNA genome titer, 5th day vs 1st day post-inoculation [4] | amount of HCV NS5A and NS5B proteins by immunoblot analysis ([1]; 100 U/ml, positive control)
1 | [MeIle]^4-Ciclosporin | undetectable | undetectable | about 1/400 | significant increase of the HCV RNA genome titer at these time points was not observed | 
2 | IFNα |  |  |  | significant increase of the HCV RNA genome titer at these time points was not observed | undetectable

— US7968518B2, “Use of modified cyclosporins for the treatment of HCV disorders” (Novartis AG, priority 2003, dated 2011)
